From paper PMC11462456 (Chemical Science, 2024)

Assays:
[1] = Body weight change in A549 xenograft mice; type: in vivo, mouse; conditions: i.p.
Protocol: 4.7 Therapeutic anti-tumor evaluation
Animal experiments were carried out in accordance with the regulatory guidelines of the Ethics Committee of the Ghent University Hospital. 30 female Swiss Nude Immunodeficient mice (Crl:NU(Ico)-Foxn1nu) of 5 weeks-6 weeks old (Charles River) were subcutaneously injected with […] A549 (1:1 serum free DMEM medium: Matrigel (Corning)). 10 days post inoculation ,mice were randomized into five groups (6 mice/group) with equal average tumor volume and treatment was started: (1) the control group: Vehicle(20% PEG400 and 5% […]
2J2V group (0.1 mg/kg), (5) the 2J2V group(0.5 mg/kg).Mice were treated on Day 0, Day 2, Day 4, Day 11, Day 18 by intraperitoneal injection. Tumor growth was monitored every 3 days by caliper, and the tumor volume was calculated as 1/2 × length × width2. Body weight was monitored every 3 days by weighing scale. […]
The reduced […]
proteins were alkylated with 40 mM iodoacetamide (IAA) in the dark for 30 minutes. Then samples were acidified with 1.2% aqueous phosphoric acid and mixed with 6× volumes of 90% methanol, 100 mM TEAB, pH 7.1 (S-Trap binding buffer). The samples were loaded onto the (1 picture or pasted object on this page, not shown here)

A549 cells [2] = assay: MTT cell viability with and without washout; type: cell-based, human
Protocol: Figure S6 Dual-ligand PROTAC activity is not caused by enhanced BRD-inhibition by dual JQ1
display. A549 cells were treated with an escalating dose of 2J2V, 2J-N3 and JQ1, respectively, for 8h.
Subsequently, cells were either washed and cultured in fresh medium, or left untouched. After a total
of 48h, cell viability was measured by MTT assay (n=6). […]

A549 cells [3] = assay: CellTiter-Glo 2D metabolic activity assay, A549; type: cell-based; conditions: Homo sapiens, 2D culture, 48 h
Protocol: 4.4 Cell viability assay on 2D cells cultures
HEK293, HCT116, A549,andSKOV-3 cells were seeded in 96-well tissue culture plates at a density of 2000-3000 cells per well in 100 µl of growth medium and incubated overnight at 37 °C with 5% CO2. The following day, the cells were treated with various concentrations of compounds or 0.05% DMSO for 48 h. After treatment, add 100 μl of Cell Titer-Glo® 2.0 Reagent (cat. no. G9243, Promega) in each well, then the 96-well plates were put on an orbital shaker for 10 min and then allow the plate to incubate at room temperature for 10-20min to stabilize the luminescent signal. Luminescence readout (Gen5 Data Analysis Software v3.08.01) was performed to record luminescence.
(1 picture or pasted object on this page, not shown here)

CRBN = molecular target: T1, CRBN (Homo sapiens, UniProt Q96SW2); assay: E3 ligase homo-degradation by western blot, CRBN; type: cell-based; conditions: HEK293 cells, 4 h, 0.1, 1 and 10 μM
T1 construct: western blot analysis of the levels of CRBN and VHL E3 ligase in cell lysate; endogenous in cells; host or cells: HEK293 (ATCC)
Excerpt: 4. Biological experiments
Primary antibodies used for western blotting included anti-human BRD2(1:2000, rabbit monoclonal, Abcam, ab139690), anti-human BRD3 (1:1000, rabbit monoclonal, Abcam, ab264420), anti-human BRD4 (E2A7X) (1:1000, rabbit monoclonal, Cell Signaling Technology, #13440), anti-human VHL (1:1000, rabbit polyclonal, Cell Signaling Technology, #68547), anti-human CRBN (D8H3S) (1:1000, rabbit polyclonal, Cell Signaling Technology, #71810), anti-human alpha Tubulin, clone B-5-1-2 (1:5000, mouse monoclonal, Merck Life Science, # 32-2500).Secondary antibodies used for western blot included: anti-mouse horseradish peroxidase-linked antibody (1:3000, sheep, GE Healthcare Life Sciences, #NA931V), and anti-rabbit horseradish peroxidase-linked antibody (1:8000, donkey, GE Healthcare Life Sciences, #NA934V). Reagent for degradation assay and compounds […]
dr. Serge Van Calenbergh, Ghent University).
4.2 Cell lines and culture
HEK293, A549, SKOV-3, HCT116 cells (ATCC)were grown in DMEM (Gibco),and all cells were supplemented with 10% (v/v) fetal bovine serum (FBS) (Sigma), […] penicillin/streptomycin solution (Thermo Fisher Scientific) and maintained at 37 °C and 5% CO2 in a humidified atmosphere. All cells used were tested monthly using the Mycoalert Mycoplasma Detection Kit (cat. no. LT07-318, Lonza) to exclude mycoplasma contamination.
4.3 Degradation assays by Western blot
General method of Western blot: Lysates were sonicated and centrifuged at 4 °C at 20000 g for 15 min, and the supernatants were transferred to new tubes. Protein concentration of cell lysates was measured using the DC Protein Assay kit (BIO-RAD) following manufacturer's instructions. Cell lysates were mixed with reducing sample buffer (0.5 M Tris-HCl (pH 6.8), 43% glycerol, 9.2% SDS, 5% 2-mercaptoethanol, 5% bromophenol blue) and boiled for 5 min at 95°C. […]
Figure S5 Homo-degradation effect in Dual-ligand PROTACs. […] Subsequently, cell lysates were prepared and the protein levels of CRBN or VHL E3 ligase were assessed by Western blotting. […]

BRD4 = molecular target: T2, BRD4 (Homo sapiens, UniProt O60885); assay: Western blot degradation of BRD4 in HEK293 cells; type: cell-based; conditions: HEK293, lenalidomide 10 μM preincubated 2 h, PROTAC 100 nM, 4 h
T2 construct: BRD2, BRD3 and BRD4 protein levels were measured by western blot; endogenous in cells; host or cells: HEK293 (ATCC)
Protocol: HEK293, A549, SKOV-3, HCT116 cells (ATCC)were grown in DMEM (Gibco),and all cells were supplemented with 10% (v/v) fetal bovine serum (FBS) (Sigma), 100 mg/mL penicillin/streptomycin solution (Thermo Fisher Scientific) and maintained at 37 °C and 5% CO2 in a humidified atmosphere. All cells used were tested monthly using the Mycoalert
at 95°C. Proteins were separated by SDS–PAGE (SDS polyacrylamide gel electrophoresis) with 25–40 µg of total protein per well, transferred to 0.2-μm-pore nitrocellulose membranes (BIO-RAD), then blocked in 5%(w/v) milk in PBS and 0.5% Tween-20, and incubated overnight at 4°C with primary antibodies described in section 4.1. Secondary antibodies were added for 1h at room temperature after 3 times washing with blocking buffer. After 6 times of washing
with PBS (Thermo Fisher Scientific) and 0.5% Tween-20, Blots were detected using the Clarity Western ECL Substrate (BIO-RAD) and visualized on iBright CL 750 (Thermo Fisher Scientific) and images were analyzed using iBright Firmware 1.7.0.
4.3.1 Evaluation of the degradation capacity of PROTACs […]

T1 sequence (Q96SW2 whole entry): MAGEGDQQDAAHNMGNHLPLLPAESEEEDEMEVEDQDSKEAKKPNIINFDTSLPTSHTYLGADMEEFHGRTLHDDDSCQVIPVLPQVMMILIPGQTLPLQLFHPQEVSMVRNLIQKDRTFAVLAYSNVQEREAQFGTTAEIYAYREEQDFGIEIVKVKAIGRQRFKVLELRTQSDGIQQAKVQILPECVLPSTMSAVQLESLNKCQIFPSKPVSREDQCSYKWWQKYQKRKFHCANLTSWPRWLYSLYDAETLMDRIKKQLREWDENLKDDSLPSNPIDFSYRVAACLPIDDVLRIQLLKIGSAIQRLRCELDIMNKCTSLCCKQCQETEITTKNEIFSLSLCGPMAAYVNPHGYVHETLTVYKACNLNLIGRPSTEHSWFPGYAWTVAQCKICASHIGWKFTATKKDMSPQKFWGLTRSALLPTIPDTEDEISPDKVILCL

Question: What does the source list for Cc1ncsc1-c1ccc(C(C)NC(=O)C2CC(O)CN2C(=O)C(NC(=O)COCCOCCNC(=O)CC(NC(=O)CCc2cn(CCOCCOCCOCCOCC(=O)NC(CC(=O)NCCOCCOCCNC(=O)CC3N=C(c4ccc(Cl)cc4)c4c(sc(C)c4C)-n4c(C)nnc43)C(=O)NCCOCCOCCNC(=O)CC3N=C(c4ccc(Cl)cc4)c4c(sc(C)c4C)-n4c(C)nnc43)nn2)C(=O)NCCOCCOCC(=O)NC(C(=O)N2CC(O)CC2C(=O)NC(C)c2ccc(-c3scnc3C)cc2)C(C)(C)C)C(C)(C)C)cc1 (stereo not shown) [2J2V]?
Answer: body weight change ([1]; 0.1 mg kg−1): no detectable decrease in body weight; body weight change ([1]; 0.5 mg kg−1): slight body weight decrease; cytotoxic activity (A549 cells [2]; 48 hours): much more potent; cytotoxic potency after washout (A549 cells [2]; washout after 8 hours, 48 hours total): largely retained its potency after washout

Question: Which EC50 (A549 cells [3]) does the source give for Cc1ncsc1-c1ccc(CNC(=O)C2CC(O)CN2C(=O)C(NC(=O)COCCOCCOCCNC(=O)CC2N=C(c3ccc(Cl)cc3)c3c(sc(C)c3C)-n3c(C)nnc32)C(C)(C)C)cc1 (stereo not shown) [MZ1, reference compound] here?
Answer: 400 nM

Question: With Cc1sc2c(c1C)C(c1ccc(Cl)cc1)=N[C@@H](CC(=O)NCCOCCOCCNC(=O)C[C@H](NC(=O)COCCOCCOCCOCCn1cc(CCC(=O)N[C@@H](CC(=O)NCCOCCOCCNc3cccc4c3C(=O)N(C3CCC(=O)NC3=O)C4=O)C(=O)NCCOCCOCCNc3cccc4c3C(=O)N(C3CCC(=O)NC3=O)C4=O)nn1)C(=O)NCCOCCOCCNC(=O)C[C@@H]1N=C(c3ccc(Cl)cc3)c3c(sc(C)c3C)-n3c(C)nnc31)c1nnc(C)n1-2 (stereo partly shown) [2J2P] as the compound, how does the “CRBN level (homo-degradation)” value (CRBN) read?
Answer: did not induce any significant decrease of CRBN

Question: And the “BRD4 degradation efficiency on addition of lenalidomide” value (BRD4)?
Answer: significantly reduced
